Measurements as given in paper PMC12610539, “Determination of Gnetol in Murine Biological Matrices by Liquid Chromatography–Tandem Mass Spectrometry (LC–MS/MS): Application in a Biodistribution Study” (International Journal of Molecular Sciences, 2025).
Like-named read-outs stand apart in the source and are kept apart here.

What was measured:
[1] = Stability of stock solutions (1 mg/mL in DMSO); type: physicochemical
Description: (§1) Stock solutions of gnetol and resveratrol-^13C6 (IS) were prepared in DMSO at 1 mg/mL, stored at −20 °C, and protected from light. Calibration standards and QC samples were generated by serially diluting the gnetol stock into pooled blank murine plasma or hepatic homogenate. Stability was assessed under a range of storage and handling conditions. Stock solutions of gnetol and the IS were evaluated after storage on ice (0–4 °C) and at −20 °C. Plasma stability of gnetol was examined under short-term conditions (on ice for 6 h), long-term storage (−80 °C for 7 days), three freeze–thaw cycles, and post-preparative holding (autosampler at 4 °C for 24 h). Because stability is difficult to determine directly in intact tissues, only short-term stability in liver homogenate (on ice for 6 h) was assessed; for processed tissue extracts, post-preparative stability was likewise evaluated using liver homogenate as a representative matrix. Stability was considered acceptable when 85–115% of the initial gnetol concentration remained.

SARS-CoV-2 main protease = system: SARS-CoV-2 main protease; set-up: method as in PMID 39653224; settings: cited from earlier work
tyrosinase = settings: cited from earlier work
in vitro = in vitro ADME; settings: mouse
Description: as §1, with “Stability” for “Stock solutions of gnetol and resveratrol-^13C6 (IS) were prepared in DMSO at 1 mg/mL, stored at −20 °C, and protected from light. Calibration standards and QC samples were generated by serially diluting the gnetol stock into pooled blank murine plasma or hepatic homogenate. Stability”

Row | SMILES | remaining at 24 h, 1 mg/mL [1] [%] | remaining at 168 h, 1 mg/mL [1] [%] | Inhibition of SARS-CoV-2 main protease (SARS-CoV-2 main protease) | Tyrosinase inhibition (tyrosinase) | remaining at 15 ng/mL (in vitro; plasma) [%] | remaining at 1200 ng/mL (in vitro; plasma) [%] | remaining at 6 h, 15 ng/mL (in vitro; plasma) [%] | remaining at 6 h, 1200 ng/mL (in vitro; plasma) [%] | remaining at 24 h, 15 ng/mL (in vitro; plasma) [%] | remaining at 24 h, 1200 ng/mL (in vitro; plasma) [%] | remaining at 168 h, 15 ng/mL (in vitro; plasma) [%] | remaining at 168 h, 1200 ng/mL (in vitro; plasma) [%] | remaining at 6 h, 15 ng/mL (in vitro; tissue homogenate) [%] | remaining at 6 h, 1200 ng/mL (in vitro; tissue homogenate) [%] | remaining at 24 h, 15 ng/mL (in vitro; tissue homogenate) [%] | remaining at 24 h, 1200 ng/mL (in vitro; tissue homogenate) [%] | remaining at 24 h, 1 mg/mL ([1]; stock solution in DMSO, stock solution 1.00 mg/mL, stored at ice-cold temperature for 24 h, n = 6, read-out: Remaining (%, Mean ± SD)) [%] | remaining at 168 h, 1 mg/mL ([1]; stock solution in DMSO, stock solution 1.00 mg/mL, stored at −20 °C for 7 days, n = 6, read-out: Remaining (%, Mean ± SD)) [%]
1 | Oc1cc(O)cc(/C=C/c2c(O)cccc2O)c1 [Gnetol, trans-2,3′,5′,6-tetrahydroxystilbene] | 101 ± 5.3 | 98.2 ± 3.9 | inhibits the SARS-CoV-2 main protease | potent tyrosinase inhibitor | 103 ± 11.6 | 112 ± 2.2 | 100 ± 7.3 | 106 ± 1.8 | 94 ± 7.7 | 103 ± 7.6 | 97.2 ± 6.3 | 112 ± 2.5 | 96.1 ± 11.3 | 110 ± 4.4 | 104 ± 4.5 | 88.9 ± 6.4 |  | 
2 | Oc1cc(O)cc(/C=C/[13c]2[13cH][13cH][13c](O)[13cH][13cH]2)c1 [Resveratrol-^13C6, trans-3,5,4′-trihydroxystilbene-^13C6, reference compound] |  |  |  |  |  |  |  |  |  |  |  |  |  |  |  |  | 98.2 ± 3.9 | 100 ± 3.6
